These results are taken from publication PMC12426935, “On-Cell Saturation Transfer Difference NMR Spectroscopy on Ion Channels: Characterizing Negative Allosteric Modulator Binding Interactions of P2X7” (Journal of the American Chemical Society, 2025).

Like-named read-outs stand apart in the source and are kept apart here.

Assay [1] addresses T1, rat P2X7 (rP2X7) (Rattus norvegicus, UniProt Q64663).
T1 construct: expressed in transfected cells
T1 sequence (Q64663 1-595): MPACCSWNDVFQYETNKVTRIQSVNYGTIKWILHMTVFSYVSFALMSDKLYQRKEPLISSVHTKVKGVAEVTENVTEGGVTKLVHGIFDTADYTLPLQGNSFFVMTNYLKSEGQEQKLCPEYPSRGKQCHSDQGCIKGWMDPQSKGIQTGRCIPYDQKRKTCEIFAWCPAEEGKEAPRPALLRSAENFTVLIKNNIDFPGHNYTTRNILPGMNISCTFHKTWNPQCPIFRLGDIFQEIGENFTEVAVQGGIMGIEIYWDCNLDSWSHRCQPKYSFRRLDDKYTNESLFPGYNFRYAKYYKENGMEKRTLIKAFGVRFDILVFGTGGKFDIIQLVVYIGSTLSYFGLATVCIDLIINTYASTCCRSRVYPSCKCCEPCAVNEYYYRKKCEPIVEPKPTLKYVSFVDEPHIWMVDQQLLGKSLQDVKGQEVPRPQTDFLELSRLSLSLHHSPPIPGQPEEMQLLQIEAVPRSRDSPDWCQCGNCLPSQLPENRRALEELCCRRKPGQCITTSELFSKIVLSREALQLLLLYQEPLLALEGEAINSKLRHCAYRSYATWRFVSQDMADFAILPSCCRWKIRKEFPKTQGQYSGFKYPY
The assay is described as follows: fura-2 intracellular calcium assay on HEK-293 stable cell line expressing rat P2X7. The class given is cell-based. To be noted: Rat P2X7 (Table 1), n = 3. Here is the method: (§1) Genetically edited HEK-293 cells lacking P2Y2 receptors were used to generate stable cell lines expressing human P2X7 (hP2X7), mouse P2X7 (mP2X7), rat P2X7 (rP2X7), or mutants of the hP2X7 NAM site (F88A, M105A, and F103A). Transfection was performed using lipofectamine 2000 (Fisher Scientific), and cells were subjected to Geneticin (800 μg/mL) selection for 2–3 weeks. This was followed by single cell cloning by limiting dilution in 96-well plates. Individual clones were selected for further study based on ATP-induced TO-PRO-3 uptake on a BD Cytoflex flow cytometer. Cell lines were maintained in DMEM:F12 media supplemented with 10% fetal bovine serum (PanBiotech), penicillin and streptomycin (Fisher Scientific) and kept in a humidified incubator with 5% CO2. Stable P2X7-expressing cells were kept under Geneticin selection at a concentration of 400 μg/mL. Passaging was performed twice weekly using 0.25% Trypsin-EDTA (Fisher Scientific).
(§2) P2X7 responses were measured by monitoring intracellular calcium responses using fura-2AM loaded cells. Cells were plated at 2–2.5 × 10^4 cells/well the day before experiments in 96-well plates (NUNC) coated with 50 μg/mL poly-D-lysine (Merck Millipore). A loading buffer containing 2 μM fura-2AM (HelloBio) and 250 μM sulfinpyrazone (Merck Millipore) in a low divalent buffer (145 mM NaCl, 5 mM KCl, 0.2 mM CaCl2, 10 mM HEPES, 13 mM glucose, pH 7.3) was added to cells for 45 min at 37 °C. After loading, the buffer was removed and replaced with calcium-containing extracellular solution (145 mM NaCl, 5 mM KCl, 2 mM CaCl2, 10 mM HEPES, 13 mM glucose, pH 7.3). Responses were measured using a Flexstation 3 plate reader (Molecular Devices) with dual excitation wavelengths of 340 and 380 nm and single emission wavelength of 510 nm. The sample interval was 3.5 s, and each well was recorded for 180 s. Fura-2 ratios were calculated in Softmax Pro v5.4; zero baseline was applied, and responses were measured as normalized area under the curve (AUC). Dose inhibition curves were plotted using GraphPad Prism v6 nonlinear regression (three parameter fit) and log IC50 values reported.

Assay [2] has as its target T2, human P2X7 (WT hP2X7) (Homo sapiens, UniProt Q99572).
T2 sequence (Q99572 1-595): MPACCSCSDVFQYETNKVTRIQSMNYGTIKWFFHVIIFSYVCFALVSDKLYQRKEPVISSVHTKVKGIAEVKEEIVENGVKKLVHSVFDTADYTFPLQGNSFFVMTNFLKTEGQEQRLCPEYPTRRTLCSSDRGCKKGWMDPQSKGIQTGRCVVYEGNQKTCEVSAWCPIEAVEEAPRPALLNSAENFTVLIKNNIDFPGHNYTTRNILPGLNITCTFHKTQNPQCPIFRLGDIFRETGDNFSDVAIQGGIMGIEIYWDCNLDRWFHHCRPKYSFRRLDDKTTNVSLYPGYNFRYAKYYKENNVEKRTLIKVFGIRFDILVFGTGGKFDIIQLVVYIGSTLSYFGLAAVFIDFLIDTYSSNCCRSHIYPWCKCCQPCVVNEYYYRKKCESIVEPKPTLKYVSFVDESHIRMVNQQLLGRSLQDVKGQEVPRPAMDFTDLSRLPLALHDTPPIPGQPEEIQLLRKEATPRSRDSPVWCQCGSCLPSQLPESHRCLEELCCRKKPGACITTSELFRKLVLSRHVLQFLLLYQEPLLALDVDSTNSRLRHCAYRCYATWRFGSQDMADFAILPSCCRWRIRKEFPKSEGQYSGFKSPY
The assay is described as follows: fura-2 intracellular calcium assay on HEK-293 stable cell line expressing human P2X7. The class given is cell-based. As for the experimental part:
as §1, with “Transfection” for “Genetically edited HEK-293 cells lacking P2Y2 receptors were used to generate stable cell lines expressing human P2X7 (hP2X7), mouse P2X7 (mP2X7), rat P2X7 (rP2X7), or mutants of the hP2X7 NAM site (F88A, M105A, and F103A). Transfection”
as §2, with “A loading buffer containing 2 μM fura-2AM (HelloBio) and 250 μM sulfinpyrazone (Merck Millipore) in a low divalent buffer (145 mM NaCl, 5 mM KCl, 0.2 mM CaCl2, 10 mM HEPES, 13 mM glucose, pH 7.3) was added to cells for 45 min at 37 °C. After loading, the buffer was removed and replaced with calcium-containing extracellular solution (145 mM NaCl, 5 mM KCl, 2 mM CaCl2, 10 mM HEPES, 13 mM glucose, pH 7.3).” left out
On the technique in general: Calcium flux is commonly read through the fluorescence of an indicator in the cells.

By IC50 is commonly meant the concentration that inhibits the measured activity by half. For the compound `O=C(NCC1(N2CCN(c3ccccc3)CC2)CCOCC1)c1cccnc1Sc1ccccc1` [JNJ-47965567], the 50% inhibitory concentration (IC50) in assay [1] (log IC50 ± standard error, read-out: Log IC50 (converted)) was 17.4 nM; in assay [1] (mean in brackets, read-out: mean IC50), 17.6 nM; in assay [2] it was 26 nM; in assay [2] (Human P2X7, species comparison (Table 1), log IC50 ± standard error, n = 3, read-out: Log IC50 (converted)), 9.12 nM; in assay [2] (Human P2X7, species comparison (Table 1), mean in brackets, n = 3, read-out: mean IC50), 9 nM; in assay [2] (WT hP2X7, agonist ATP (Table 2), log IC50 ± standard error, n = 3, read-out: Log IC50 (converted)), 11.9 nM. Also, the IC50 in assay [2] (WT hP2X7, agonist ATP (Table 2), mean in brackets, n = 3, read-out: mean IC50) was 11.7 nM.
